Values of other authors in patent publication US20250369985A1, “METHOD FOR DETERMINING THE THERAPEUTIC REGIMEN FOR AN INDIVIDUAL AND ITS USE” (MOSAIQUES DIAGNOSTICS AND THERAPEUTICS AG, priority 2022, published 2025).
Like-named read-outs stand apart in the source and are kept apart here.

Test system: urinary proteins/peptides (71 biomarkers of CD71 classifier)

## CCOc1nc2cccc(C(=O)O)c2n1Cc1ccc(-c2ccccc2-c2nnn[nH]2)cc1 [drug A]
Peptide 99900220 (Seq. ID No. 1)
  f (fold-change of the abundance): 1
Peptide 99900467 (Seq. ID No. 2)
  f (fold-change of the abundance): 1
Peptide 99901399 (Seq. ID No. 3)
  f (fold-change of the abundance): 1
Peptide 99902592 (Seq. ID No. 4)
  f (fold-change of the abundance): 1
Peptide 99903025 (Seq. ID No. 5)
  f (fold-change of the abundance): 1
Peptide 99904405 (Seq. ID No. 6)
  f (fold-change of the abundance): 1
Peptide 99904666 (Seq. ID No. 7)
  f (fold-change of the abundance): 1
Peptide 99904862 (Seq. ID No. 8)
  f (fold-change of the abundance): 1.4
Peptide 99905044 (Seq. ID No. 9)
  f (fold-change of the abundance): 1
Peptide 99905259 (Seq. ID No. 10)
  f (fold-change of the abundance): 1.5
Peptide 99905274 (Seq. ID No. 11)
  f (fold-change of the abundance): 1
Peptide 99905379 (Seq. ID No. 12)
  f (fold-change of the abundance): 1
Peptide 99905423 (Seq. ID No. 13)
  f (fold-change of the abundance): 1.15
Peptide 99905509 (Seq. ID No. 14)
  f (fold-change of the abundance): 1
Peptide 99905551 (Seq. ID No. 15)
  f (fold-change of the abundance): 1
Peptide 99906176 (Seq. ID No. 16)
  f (fold-change of the abundance): 1.47
Peptide 99907275 (Seq. ID No. 17)
  f (fold-change of the abundance): 1
Peptide 99907807 (Seq. ID No. 18)
  f (fold-change of the abundance): 1
Peptide 99908755 (Seq. ID No. 19)
  f (fold-change of the abundance): 1
Peptide 99908795 (Seq. ID No. 20)
  f (fold-change of the abundance): 1.49
Peptide 99908916 (Seq. ID No. 21)
  f (fold-change of the abundance): 1
Peptide 99909059 (Seq. ID No. 22)
  f (fold-change of the abundance): 0.65
Peptide 99910002 (Seq. ID No. 23)
  f (fold-change of the abundance): 1
Peptide 99910032 (Seq. ID No. 24)
  f (fold-change of the abundance): 1
Peptide 99910407 (Seq. ID No. 25)
  f (fold-change of the abundance): 1
Peptide 99910483 (Seq. ID No. 26)
  f (fold-change of the abundance): 1
Peptide 99910554 (Seq. ID No. 27)
  f (fold-change of the abundance): 1
Peptide 99910883 (Seq. ID No. 28)
  f (fold-change of the abundance): 0.81
Peptide 99911002 (Seq. ID No. 29)
  f (fold-change of the abundance): 1
Peptide 99911193 (Seq. ID No. 30)
  f (fold-change of the abundance): 1.26
Peptide 99911415 (Seq. ID No. 31)
  f (fold-change of the abundance): 1
Peptide 99911559 (Seq. ID No. 32)
  f (fold-change of the abundance): 1
Peptide 99911777 (Seq. ID No. 33)
  f (fold-change of the abundance): 1
Peptide 99912101 (Seq. ID No. 34)
  f (fold-change of the abundance): 1
Peptide 99912211 (Seq. ID No. 35)
  f (fold-change of the abundance): 1.78
Peptide 99912366 (Seq. ID No. 36)
  f (fold-change of the abundance): 1
Peptide 99912411 (Seq. ID No. 37)
  f (fold-change of the abundance): 1
Peptide 99912661 (Seq. ID No. 38)
  f (fold-change of the abundance): 1
Peptide 99913200 (Seq. ID No. 39)
  f (fold-change of the abundance): 1
Peptide 99913322 (Seq. ID No. 40)
  f (fold-change of the abundance): 1
Peptide 99913825 (Seq. ID No. 41)
  f (fold-change of the abundance): 0.68
Peptide 99914211 (Seq. ID No. 42)
  f (fold-change of the abundance): 1
Peptide 99914445 (Seq. ID No. 43)
  f (fold-change of the abundance): 1
Peptide 99914876 (Seq. ID No. 44)
  f (fold-change of the abundance): 1
Peptide 99914887 (Seq. ID No. 45)
  f (fold-change of the abundance): 1
Peptide 99914893 (Seq. ID No. 46)
  f (fold-change of the abundance): 0.67
Peptide 99914935 (Seq. ID No. 47)
  f (fold-change of the abundance): 1
Peptide 99915015 (Seq. ID No. 48)
  f (fold-change of the abundance): 1.83
Peptide 99915755 (Seq. ID No. 49)
  f (fold-change of the abundance): 0.67
Peptide 99915778 (Seq. ID No. 50)
  f (fold-change of the abundance): 1
Peptide 99915883 (Seq. ID No. 51)
  f (fold-change of the abundance): 1
Peptide 99916170 (Seq. ID No. 52)
  f (fold-change of the abundance): 1.27
Peptide 99916177 (Seq. ID No. 53)
  f (fold-change of the abundance): 1
Peptide 99916611 (Seq. ID No. 54)
  f (fold-change of the abundance): 1
Peptide 99916615 (Seq. ID No. 55)
  f (fold-change of the abundance): 1
Peptide 99916966 (Seq. ID No. 56)
  f (fold-change of the abundance): 1
Peptide 99917047 (Seq. ID No. 57)
  f (fold-change of the abundance): 0.64
Peptide 99917221 (Seq. ID No. 58)
  f (fold-change of the abundance): 0.74
Peptide 99917280 (Seq. ID No. 59)
  f (fold-change of the abundance): 1
Peptide 99917288 (Seq. ID No. 60)
  f (fold-change of the abundance): 1
Peptide 99917419 (Seq. ID No. 61)
  f (fold-change of the abundance): 1
Peptide 99917505 (Seq. ID No. 62)
  f (fold-change of the abundance): 1
Peptide 99917596 (Seq. ID No. 63)
  f (fold-change of the abundance): 1
Peptide 99917626 (Seq. ID No. 64)
  f (fold-change of the abundance): 1
Peptide 99917690 (Seq. ID No. 65)
  f (fold-change of the abundance): 1
Peptide 99917825 (Seq. ID No. 66)
  f (fold-change of the abundance): 1
Peptide 99917890 (Seq. ID No. 67)
  f (fold-change of the abundance): 1
Peptide 99917947 (Seq. ID No. 68)
  f (fold-change of the abundance): 1
Peptide 99918831 (Seq. ID No. 69)
  f (fold-change of the abundance): 1
Peptide 99918906 (Seq. ID No. 70)
  f (fold-change of the abundance): 1
Peptide 99918909 (Seq. ID No. 71)
  f (fold-change of the abundance): 1
